Target: T1, FimH-CRD (Escherichia coli, UniProt P08191)
T1 construct: The first 177 amino acids of the FimH protein; thrombin tag (printed as 'fusion protein with thrombin') (cleaved yes); made in house; host or cells: bacteria (pET21b plasmid)
Experiment: Competitive binding assay by fluorescence polarization, assay 1 (compounds prepared by manual serial dilution)
Method: The first 177 amino acids of the FimH protein were expressed as a fusion protein with thrombin in a pET21b plasmid in bacteria. This FimH protein sequence contains the carbohydrate recognition domain (CRD) and shall be termed FimH-CRD. Following bacterial expression of the protein, the FimH-CRD protein was purified to homogeneity and the thrombin tag removed by protease cleavage. A competitive binding assay by fluorescence polarization was performed using 5 nM of the Alexa 647 mannoside probe and 60 nM of the FimH-CRD. The samples are assayed in a low volume 384 well microtiter plate in a final volume of 20 μl. The final assay buffer conditions are the following, 50 mM Tris-Cl, ph 7.0, 100 mM NaCl, 1 mM EDTA, 5 mM β-mercaptoethanol, 0.05% BSA and 2.5% DMSO. Two assays are performed for FimH, termed assay 1 or assay 2. The assay conditions are the same for both assays except the following: assay 1 has compounds prepared by manual dilution in a serial dilution factor with 12-point dose response while assay 2 has compounds prepared by a robotics system also through a serial dilution factor (12 point dose response) and initially prepared in duplicate in 384 well-Corning polypropylene round bottom plates. The assay 2 plates have compound which is then frozen and must be thawed prior to use. Initially the Alexa 647 probe and the FimH-CRD are added to the assay buffer and then 0.5 μl of test compound (assay 1 or 2) between 0.4 nM to 75 μM final concentration are added (12 point titration with 3-fold serial dilution). Control wells for the Alexa 647 probe are prepared with the same conditions except for the addition of the FimH-CRD protein. Plates are then incubated for 5 hrs at room temperature in the dark and under humid conditions to prevent drying. Plates are read using the SpectraMax Paradigm multi-mode plate reader and the appropriate fluorescent polarization detection cartridge (Alexa-647).
Alexa 647 mannoside probe is prepared using the similar procedure reported for FAM mannoside (Han, Z. et. al., 2010, J. Med. Chem., 53, 4779) and is described in the scheme below.
To a blue colored stirred solution of (2S,3S,4S,5S,6R)-2-(4-aminobutoxy)-6-(hydroxymethyl)tetrahydropyran-3,4,5-triol (2.21 mg, 0.009 mmol) and the (2E)-2-[(2E,4E)-5-[3,3-dimethyl-5-sulfonato-1-(3-sulfonatopropyl)indol-1-ium-2-yl]penta-2,4-dienylidene]-3-[6-(2,5-dioxopyrrolidin-1-yl)oxy-6-oxo-hexyl]-3-methyl-1-(3-sulfonatopropyl)indoline-5-sulfonate (Potassium Ion (3)) (4.9 mg, 0.0044 mmol) in DMF (44 μL) is added Et3N (5.4 mg, 7.0 μL, 0.053 mmol) at RT. The solution is stirred at room temperature over night, concentrated, dissolved in water and purified on 12 g C-18 silica gel cartridge on Isolera system using acetonitrile in water (0 to 40%, 10 CV) and followed by lyophilization to afford Alexa 647 mannoside probe (3.3 mg, 34%) as deep blue solid.
The Kd values of the compounds are determined from dose response curves using twelve concentrations per compound in duplicate. Curves are fitted to data points using Fluorescence Polarization competitive displacement analysis, and Kds are interpolated from the resulting curves using GraphPad Prism software, version […] (GraphPad software Inc., San Diego, Calif., USA).

T1 sequence (P08191 22-177): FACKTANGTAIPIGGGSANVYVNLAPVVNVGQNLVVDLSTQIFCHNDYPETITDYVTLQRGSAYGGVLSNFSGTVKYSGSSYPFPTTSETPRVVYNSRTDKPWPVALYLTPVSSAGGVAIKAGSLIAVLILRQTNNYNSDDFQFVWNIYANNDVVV

CNC(=O)c1cc(C(=O)NC)cc(-c2cccc([C@H]3O[C@H](CO)[C@@H](O)[C@H](O)[C@@H]3O)c2)c1 [Compound 63, N^3,N^5-dimethyl-3′-((2R,3S,4R,5S,6R)-3,4,5-trihydroxy-6-(hydroxymethyl)tetrahydro-2H-pyran-2-yl)-[1,1′-biphenyl]-3,5-dicarboxamide]
IC50: 19 nM
Kd: 25.4 ± 14.4 nM

COC(=O)Cc1cccc(-c2cccc([C@H]3O[C@H](CO)[C@@H](O)[C@H](O)[C@@H]3O)c2)c1 [Compound 65, Methyl 2-(3′-((2R,3S,4R,5S,6R)-3,4,5-trihydroxy-6-(hydroxymethyl)tetrahydro-2H-pyran-2-yl)-[1,1′-biphenyl]-3-yl)acetate]
IC50: 18 nM
Kd: 5.2 ± 0.1 nM

COC(=O)Cc1ccccc1-c1cccc([C@H]2O[C@H](CO)[C@@H](O)[C@H](O)[C@@H]2O)c1 [Compound 66, Methyl 2-(3′-((2R,3S,4R,5S,6R)-3,4,5-trihydroxy-6-(hydroxymethyl)tetrahydro-2H-pyran-2-yl)-[1,1′-biphenyl]-2-yl)acetate]
IC50: 24 nM
Kd: 14.3 ± 6.6 nM

OC[C@H]1O[C@H](c2ccc(Cl)c(O)c2)[C@@H](O)[C@@H](O)[C@@H]1O [Compound 67, (2R,3S,4R,5S,6R)-2-(4-chloro-3-hydroxyphenyl)-6-(hydroxymethyl)tetrahydro-2H-pyran-3,4,5-triol]
IC50: 106 nM
Kd: 21 ± 4.3 nM

O=C(Nc1cccs1)Oc1cccc([C@H]2O[C@H](CO)[C@@H](O)[C@H](O)[C@@H]2O)c1 [Compound 69, 3-((2R,3S,4R,5S,6R)-3,4,5-trihydroxy-6-(hydroxymethyl)tetrahydro-2H-pyran-2-yl)phenyl thiophen-2-ylcarbamate]
IC50: 66 nM
Kd: 13.1 ± 0.7 nM

O=C(Nc1ccc(F)cc1)Oc1cccc([C@H]2O[C@H](CO)[C@@H](O)[C@H](O)[C@@H]2O)c1 [Compound 70, 3-((2R,3S,4R,5S,6R)-3,4,5-trihydroxy-6-(hydroxymethyl)tetrahydro-2H-pyran-2-yl)phenyl (4-fluorophenyl)carbamate]
IC50: 46 nM
Kd: 11.6 ± 4.2 nM

CN(C)c1ccc(NC(=O)Oc2cccc([C@H]3O[C@H](CO)[C@@H](O)[C@H](O)[C@@H]3O)c2)cc1 [Compound 71, 3-((2R,3S,4R,5S,6R)-3,4,5-trihydroxy-6-(hydroxymethyl)tetrahydro-2H-pyran-2-yl)phenyl (4-(dimethylamino)phenyl)carbamate]
IC50: 67 nM
Kd: 14.6 ± 2.3 nM

C[C@@H](NC(=O)Oc1cccc([C@H]2O[C@H](CO)[C@@H](O)[C@H](O)[C@@H]2O)c1)c1ccccc1 [Compound 72, 3-((2R,3S,4R,5S,6R)-3,4,5-trihydroxy-6-(hydroxymethyl)tetrahydro-2H-pyran-2-yl)phenyl (R)-1-phenylethylcarbamate]
IC50: 60 nM
Kd: 16.2 ± 5.4 nM

OC[C@H]1O[C@H](c2cccc(C#Cc3cc(Cl)cc(Cl)c3)c2)[C@@H](O)[C@@H](O)[C@@H]1O [Compound 92, (2R,3S,4R,5S,6R)-2-[3-[2-(3,5-Dichlorophenyl)ethynyl]phenyl]-6-(hydroxymethyl)tetrahydropyran-3,4,5-triol]
Kd: 24.9 ± 11.3 nM

COc1ccc([C@H]2O[C@H](CO)[C@@H](O)[C@H](O)[C@@H]2O)cc1-c1ccc(-c2nnc(C)o2)cc1 [Compound 132, (2R,3S,4R,5S,6R)-2-(hydroxymethyl)-6-[4-methoxy-3-[4-(5-methyl-1,3,4-oxadiazol-2-yl)phenyl]phenyl]tetrahydropyran-3,4,5-triol]
Kd: 6.9 ± 0.02 nM

Cc1nnc(-c2ccc(C#Cc3cccc([C@H]4O[C@H](CO)[C@@H](O)[C@H](O)[C@@H]4O)c3)cc2)o1 [Compound 133, (2R,3S,4R,5S,6R)-2-(hydroxymethyl)-6-[3-[2-[4-(5-methyl-1,3,4-oxadiazol-2-yl)phenyl]ethynyl]phenyl]tetrahydropyran-3,4,5-triol]
Kd: 6.1 ± 1.4 nM

Cc1nnc(-c2ccc(C#Cc3ccc([C@H]4O[C@H](CO)[C@@H](O)[C@H](O)[C@@H]4O)cc3)cc2)o1 [Compound 134, (2R,3S,4R,5S,6R)-2-(hydroxymethyl)-6-[4-[2-[4-(5-methyl-1,3,4-oxadiazol-2-yl)phenyl]ethynyl]phenyl]tetrahydropyran-3,4,5-triol]
Kd: 54.2 ± 17 nM

OC[C@H]1O[C@H](c2cccc(/C=C\c3ccccc3)c2)[C@@H](O)[C@@H](O)[C@@H]1O [Compound 139, (2R,3S,4R,5S,6R)-2-(hydroxymethyl)-6-[3-[(Z)-styryl]phenyl]tetrahydropyran-3,4,5-triol]
Kd: < 5 nM

CNC(=O)c1cccc(COc2ccc(C3O[C@H](CO)[C@@H](O)[C@H](O)[C@@H]3O)cc2)c1 (some centres unmarked) [Compound 248]
Kd: 14 ± 8.4 nM

CNC(=O)c1ccc2nc(Oc3cccc([C@H]4O[C@H](CO)[C@@H](O)[C@H](O)[C@@H]4O)c3)sc2c1 [Compound 255, N-methyl-2-[3-[(2R,3S,4R,5S,6R)-3,4,5-trihydroxy-6-(hydroxymethyl)tetrahydropyran-2-yl]phenoxy]-1,3-benzothiazole-6-carboxamide]
Kd: 8.7 ± 2 nM

OC[C@H]1O[C@H](O[C@@H]2[C@H](O)[C@@H](c3cccc(O)c3)O[C@H](CO)[C@H]2O)[C@@H](O)[C@@H](O)[C@@H]1O [Compound 265, (2R,3S,4S,5S,6R)-2-[(2R,3R,4R,5R,6R)-3,5-Dihydroxy-2-(hydroxymethyl)-6-(3-hydroxyphenyl)tetrahydropyran-4-yl]oxy-6-(hydroxymethyl)tetrahydropyran-3,4,5-triol]
IC50: 162 nM
Kd: 52.1 ± 13.8 nM

OC[C@H]1O[C@H](O[C@@H]2[C@H](O)[C@@H](c3ccc(O)cc3)O[C@H](CO)[C@H]2O)[C@@H](O)[C@@H](O)[C@@H]1O [Compound 266, (2R,3S,4S,5S,6R)-2-[(2R,3R,4R,5R,6R)-3,5-Dihydroxy-2-(hydroxymethyl)-6-(4-hydroxyphenyl)tetrahydropyran-4-yl]oxy-6-(hydroxymethyl)tetrahydropyran-3,4,5-triol]
IC50: 59 nM
Kd: 21.3 ± 6.2 nM

CNC(=O)c1ccc(Oc2cccc([C@H]3O[C@H](CO)[C@@H](O)[C@H](O[C@H]4O[C@H](CO)[C@@H](O)[C@H](O)[C@@H]4O)[C@@H]3O)c2)cc1 [Compound 267, 4-[3-[(2R,3R,4R,5R,6R)-3,5-Dihydroxy-6-(hydroxymethyl)-4-[(2R,3S,4S,5S,6R)-3,4,5-trihydroxy-6-(hydroxymethyl)tetrahydropyran-2-yl]oxy-tetrahydropyran-2-yl]phenoxy]-N-methyl-benzamide]
IC50: 68 nM
Kd: 12.8 ± 8 nM

CNC(=O)c1cccc(Oc2ccc([C@H]3O[C@H](CO)[C@@H](O)[C@H](O[C@H]4O[C@H](CO)[C@@H](O)[C@H](O)[C@@H]4O)[C@@H]3O)cc2)c1 [Compound 268, 3-[4-[(2R,3R,4R,5R,6R)-3,5-Dihydroxy-6-(hydroxymethyl)-4-[(2R,3S,4S,5S,6R)-3,4,5-trihydroxy-6-(hydroxymethyl)tetrahydropyran-2-yl]oxy-tetrahydropyran-2-yl]phenoxy]-N-methyl-benzamide]
IC50: 77 nM
Kd: 19 ± 3.8 nM

CNC(=O)c1cccc(Oc2cccc([C@H]3O[C@H](CO)[C@@H](O)[C@H](O[C@H]4O[C@H](CO)[C@@H](O)[C@H](O)[C@@H]4O)[C@@H]3O)c2)c1 [Compound 269, 3-[3-[(2R,3R,4R,5R,6R)-3,5-Dihydroxy-6-(hydroxymethyl)-4-[(2R,3S,4S,5S,6R)-3,4,5-trihydroxy-6-(hydroxymethyl)tetrahydropyran-2-yl]oxy-tetrahydropyran-2-yl]phenoxy]-N-methyl-benzamide]
IC50: 10 nM
Kd: < 5 nM

OC[C@H]1O[C@H](O[C@@H]2[C@H](O)[C@@H](c3cccc(Oc4ccc(F)cc4)c3)O[C@H](CO)[C@H]2O)[C@@H](O)[C@@H](O)[C@@H]1O [Compound 270, (2R,3S,4S,5S,6R)-2-[(2R,3R,4R,5R,6R)-2-[3-(4-Fluorophenoxy)phenyl]-3,5-dihydroxy-6-(hydroxymethyl)tetrahydropyran-4-yl]oxy-6-(hydroxymethyl)tetrahydropyran-3,4,5-triol]
IC50: 54 nM
Kd: 14.4 ± 2.6 nM
